Assay results from article PMC12888861, “Antibacterial activity of enmetazobactam against Acinetobacter spp.: a molecular dissection of mechanism of action and resistance determinants” (Antimicrobial Agents and Chemotherapy, 2025).
In brackets after ≈: the same amount, converted by molar mass. Where two headings read alike, the source gives them in different places.

Tested on: A. non-baumannii isolates (n = 87)
Test: MIC, broth microdilution (EUCAST), A. non-baumannii isolates
Assay type: cell-based, Acinetobacter spp. (non-baumannii)
Source text: The bacterial strains used in this study comprised 208 clinical isolates from the Spanish National Acinetobacter spp. 2020 Multicenter Collection, which was previously characterized in detail by our research group, including whole-genome sequencing, phylogenetics studies, clonal dynamics, and resistance mechanisms ([2], [29]). Additionally, a collection of A. baumannii ATCC 17978 transformants coding the blaOXA-23, blaOXA-24/40, blaOXA-51, blaOXA-58, blaOXA-143, and blaOXA-201 genes, previously constructed and described by our group ([30]), was used to determine the activity of enmetazobactam against strains carrying the main CHDLs of A. baumannii.
The antimicrobial susceptibility of the 208 Acinetobacter spp. isolates was assessed using the broth microdilution method, as described in the European Committee on Antimicrobial Susceptibility Testing (EUCAST) v.15 guidelines (http://www.eucast.org/clinical_breakpoints). […] MICs for enmetazobactam alone were assessed as well. […] Subsequently, MIC testing was also conducted with a collection of A. baumannii ATCC 17978 transformants expressing clinically relevant OXA-like carbapenemase genes.
The A. baumannii ATCC 19606 strain was used as the reference strain in all susceptibility experiments, in duplicate assays. Antibiotics were purchased from Sigma-Aldrich, except enmetazobactam and durlobactam, which were obtained from Advanz Pharma and MedChemExpress, respectively.

C[n+]1ccn(C[C@@]2(C)[C@H](C(=O)[O-])N3C(=O)C[C@H]3S2(=O)=O)n1 [enmetazobactam]
MIC distribution 0.12: 0
MIC (Acinetobacter baylyi, isolate NO-Ab27, Acinetobacter baylyi, in combinations ETZ fixed at 8 mg/L, read-out: MIC): 2 µg/mL
MIC (Acinetobacter beijerinckii, isolate NO-Ab122, Acinetobacter beijerinckii, in combinations ETZ fixed at 8 mg/L, read-out: MIC): 2 µg/mL
MIC (Acinetobacter bereziniae, isolate NO-Ab70, Acinetobacter bereziniae, in combinations ETZ fixed at 8 mg/L, read-out: MIC): 1 µg/mL
MIC (Acinetobacter bereziniae, isolate NO-Ab84, Acinetobacter bereziniae, in combinations ETZ fixed at 8 mg/L, read-out: MIC): 1 µg/mL
MIC (Acinetobacter bereziniae, isolate NO-Ab104, Acinetobacter bereziniae, in combinations ETZ fixed at 8 mg/L, read-out: MIC): 1 µg/mL
MIC (Acinetobacter bereziniae, isolate NO-Ab114, Acinetobacter bereziniae, in combinations ETZ fixed at 8 mg/L, read-out: MIC): 1 µg/mL
MIC (Acinetobacter bereziniae, isolate NO-Ab115, Acinetobacter bereziniae, in combinations ETZ fixed at 8 mg/L, read-out: MIC): 1 µg/mL
MIC (Acinetobacter bereziniae, isolate NO-Ab116, Acinetobacter bereziniae, in combinations ETZ fixed at 8 mg/L, read-out: MIC): 1 µg/mL
MIC (Acinetobacter bereziniae, isolate NO-Ab117, Acinetobacter bereziniae, in combinations ETZ fixed at 8 mg/L, read-out: MIC): 2 µg/mL
MIC (Acinetobacter bereziniae, isolate NO-Ab129, Acinetobacter bereziniae, in combinations ETZ fixed at 8 mg/L, read-out: MIC): 1 µg/mL
MIC (Acinetobacter bereziniae, isolate NO-Ab156, Acinetobacter bereziniae, in combinations ETZ fixed at 8 mg/L, read-out: MIC): 4 µg/mL
MIC (Acinetobacter calcoaceticus, isolate NO-Ab85, Acinetobacter calcoaceticus, in combinations ETZ fixed at 8 mg/L, read-out: MIC): 4 µg/mL
MIC (Acinetobacter calcoaceticus, isolate NO-Ab94, Acinetobacter calcoaceticus, in combinations ETZ fixed at 8 mg/L, read-out: MIC): 2 µg/mL
MIC (Acinetobacter calcoaceticus, isolate NO-Ab108, Acinetobacter calcoaceticus, in combinations ETZ fixed at 8 mg/L, read-out: MIC): 4 µg/mL
MIC (Acinetobacter calcoaceticus, isolate NO-Ab161, Acinetobacter calcoaceticus, in combinations ETZ fixed at 8 mg/L, read-out: MIC): 8 µg/mL
MIC (Acinetobacter calcoaceticus, isolate NO-Ab198, Acinetobacter calcoaceticus, in combinations ETZ fixed at 8 mg/L, read-out: MIC): 4 µg/mL
MIC (Acinetobacter calcoaceticus, isolate NO-Ab205, Acinetobacter calcoaceticus, in combinations ETZ fixed at 8 mg/L, read-out: MIC): 4 µg/mL
MIC (Acinetobacter calcoaceticus, isolate NO-Ab211, Acinetobacter calcoaceticus, in combinations ETZ fixed at 8 mg/L, read-out: MIC): 4 µg/mL
MIC (Acinetobacter courvalinii, isolate NO-Ab216, Acinetobacter courvalinii, in combinations ETZ fixed at 8 mg/L, read-out: MIC): 1 µg/mL
MIC (Acinetobacter dispersus, isolate NO-Ab2, Acinetobacter dispersus, in combinations ETZ fixed at 8 mg/L, read-out: MIC): 2 µg/mL
MIC (Acinetobacter guillouiae, isolate NO-Ab69, Acinetobacter guillouiae, in combinations ETZ fixed at 8 mg/L, read-out: MIC): 2 µg/mL
MIC (Acinetobacter guillouiae, isolate NO-Ab74, Acinetobacter guillouiae, in combinations ETZ fixed at 8 mg/L, read-out: MIC): 2 µg/mL
MIC (Acinetobacter haemolyticus, isolate NO-Ab92, Acinetobacter haemolyticus, in combinations ETZ fixed at 8 mg/L): 1 µg/mL
MIC (Acinetobacter haemolyticus, isolate NO-Ab177, Acinetobacter haemolyticus, in combinations ETZ fixed at 8 mg/L): 1 µg/mL
MIC (Acinetobacter haemolyticus, isolate NO-Ab217, Acinetobacter haemolyticus, in combinations ETZ fixed at 8 mg/L): 0.5 µg/mL
MIC (Acinetobacter johnsonii, isolate NO-Ab101, Acinetobacter johnsonii, in combinations ETZ fixed at 8 mg/L, read-out: MIC): 4 µg/mL
MIC (Acinetobacter junii, isolate NO-Ab76, Acinetobacter junii, in combinations ETZ fixed at 8 mg/L, read-out: MIC): 2 µg/mL
MIC (Acinetobacter junii, isolate NO-Ab77, Acinetobacter junii, OXA-24/40, in combinations ETZ fixed at 8 mg/L, read-out: MIC): 2 µg/mL
MIC (Acinetobacter lactucae, isolate NO-Ab60, Acinetobacter dijkshoorniae, in combinations ETZ fixed at 8 mg/L, read-out: MIC): 4 µg/mL
MIC (Acinetobacter lactucae, isolate NO-Ab63, Acinetobacter dijkshoorniae, in combinations ETZ fixed at 8 mg/L, read-out: MIC): 4 µg/mL
MIC (Acinetobacter lactucae, isolate NO-Ab65, Acinetobacter dijkshoorniae, in combinations ETZ fixed at 8 mg/L, read-out: MIC): 4 µg/mL
MIC (Acinetobacter lactucae, isolate NO-Ab86, Acinetobacter dijkshoorniae, in combinations ETZ fixed at 8 mg/L, read-out: MIC): 2 µg/mL
MIC (Acinetobacter lactucae, isolate NO-Ab88, Acinetobacter dijkshoorniae, in combinations ETZ fixed at 8 mg/L, read-out: MIC): 2 µg/mL
MIC (Acinetobacter lactucae, isolate NO-Ab91, Acinetobacter dijkshoorniae, in combinations ETZ fixed at 8 mg/L, read-out: MIC): 2 µg/mL
MIC (Acinetobacter lactucae, isolate NO-Ab121, Acinetobacter dijkshoorniae, in combinations ETZ fixed at 8 mg/L, read-out: MIC): 2 µg/mL
MIC (Acinetobacter lactucae, isolate NO-Ab125, Acinetobacter dijkshoorniae, in combinations ETZ fixed at 8 mg/L, read-out: MIC): 1 µg/mL
MIC (Acinetobacter lactucae, isolate NO-Ab160, Acinetobacter dijkshoorniae, in combinations ETZ fixed at 8 mg/L, read-out: MIC): 4 µg/mL
MIC (Acinetobacter nosocomialis, isolate NO-Ab43, Acinetobacter nosocomialis, in combinations ETZ fixed at 8 mg/L, read-out: MIC): 2 µg/mL
MIC (Acinetobacter nosocomialis, isolate NO-Ab68, Acinetobacter nosocomialis, OXA-24/40, in combinations ETZ fixed at 8 mg/L, read-out: MIC): 16 µg/mL
MIC (Acinetobacter nosocomialis, isolate NO-Ab98, Acinetobacter nosocomialis, in combinations ETZ fixed at 8 mg/L, read-out: MIC): 2 µg/mL
MIC (Acinetobacter nosocomialis, isolate NO-Ab208, Acinetobacter nosocomialis, in combinations ETZ fixed at 8 mg/L, read-out: MIC): 2 µg/mL
MIC (Acinetobacter pittii, MBC set, isolate NO-Ab89, A. pittii, read-out: MIC): 2 µg/mL (≈ 6.36 µM)
MIC (Acinetobacter pittii, isolate NO-Ab59, Acinetobacter pittii, in combinations ETZ fixed at 8 mg/L, read-out: MIC): 2 µg/mL
MIC (Acinetobacter pittii, isolate NO-Ab66, Acinetobacter pittii, in combinations ETZ fixed at 8 mg/L, read-out: MIC): 2 µg/mL
MIC (Acinetobacter pittii, isolate NO-Ab73, Acinetobacter pittii, in combinations ETZ fixed at 8 mg/L, read-out: MIC): 2 µg/mL
MIC (Acinetobacter pittii, isolate NO-Ab75, Acinetobacter pittii, in combinations ETZ fixed at 8 mg/L, read-out: MIC): 2 µg/mL
MIC (Acinetobacter pittii, isolate NO-Ab78, Acinetobacter pittii, in combinations ETZ fixed at 8 mg/L, read-out: MIC): 2 µg/mL
MIC (Acinetobacter pittii, isolate NO-Ab82, Acinetobacter pittii, in combinations ETZ fixed at 8 mg/L, read-out: MIC): 2 µg/mL
MIC (Acinetobacter pittii, isolate NO-Ab89, Acinetobacter pittii, in combinations ETZ fixed at 8 mg/L, read-out: MIC): 2 µg/mL
MIC (Acinetobacter pittii, isolate NO-Ab90, Acinetobacter pittii, in combinations ETZ fixed at 8 mg/L, read-out: MIC): 2 µg/mL
